Experimental data: PubChem BioAssay AID1963831 (Molecular Pharmacology Branch, DTP, NCI, 2024)

Test system: 889142-216-R-J1-PDC complex spheroid viability
Assay: Anticancer human tumor 889142-216-R-J1-PDC patient-derived bladder carcinoma cell line growth inhibition [POLQ]
Conditions: for IC50: curve of first compound; for viability, T/C: stronger effect = lower value
Method in brief: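 Complex spheroid viability model combining PDC tumour cells with endothelial (HUVEC) and MSC stromal cells. Novobiocin, ART-558 or RP6685 were tested singly and in combination with standard and investigational anticancer drugs. Each was titrated in half-log steps from near clinical Cmax, or from 10 microM where Cmax was unknown.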

[1] = second compound 0.0316 µM, first compound 0.0316 µM
[2] = second compound 0.0316 µM, first compound 0.1 µM
[3] = second compound 0.0316 µM, first compound 0.316 µM
[4] = second compound 0.0316 µM, first compound 1 µM
[5] = second compound 0.0316 µM, first compound 3.16 µM
[6] = second compound 0.0316 µM, first compound 10 µM
[7] = second compound 0.1 µM, first compound 0.0316 µM
[8] = second compound 0.1 µM, first compound 0.1 µM
[9] = second compound 0.1 µM, first compound 0.316 µM
[10] = second compound 0.1 µM, first compound 1 µM
[11] = second compound 0.1 µM, first compound 3.16 µM
[12] = second compound 0.1 µM, first compound 10 µM
[13] = second compound 0.316 µM, first compound 0.0316 µM
[14] = second compound 0.316 µM, first compound 0.1 µM
[15] = second compound 0.316 µM, first compound 0.316 µM
[16] = second compound 0.316 µM, first compound 1 µM
[17] = second compound 0.316 µM, first compound 3.16 µM
[18] = second compound 0.316 µM, first compound 10 µM
[19] = second compound 1 µM, first compound 0.0316 µM
[20] = second compound 1 µM, first compound 0.1 µM
[21] = second compound 1 µM, first compound 0.316 µM
[22] = second compound 1 µM, first compound 1 µM
[23] = second compound 1 µM, first compound 3.16 µM
[24] = second compound 1 µM, first compound 10 µM
[25] = second compound 3.16 µM, first compound 0.0316 µM
[26] = second compound 3.16 µM, first compound 0.1 µM
[27] = second compound 3.16 µM, first compound 0.316 µM
[28] = second compound 3.16 µM, first compound 1 µM
[29] = second compound 3.16 µM, first compound 3.16 µM
[30] = second compound 3.16 µM, first compound 10 µM
[31] = second compound 10 µM, first compound 0.0316 µM
[32] = second compound 10 µM, first compound 0.1 µM
[33] = second compound 10 µM, first compound 0.316 µM
[34] = second compound 10 µM, first compound 1 µM
[35] = second compound 10 µM, first compound 3.16 µM
[36] = second compound 10 µM, first compound 10 µM
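Also: spheroids exposed to compounds for seven days.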
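For viability, T/C in this document: 100% = DMSO vehicle control viability.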

CC(C)n1c(=O)n(C)c2cnc3cc(F)c(-c4ccc(OCCCN5CCCCC5)nc4)cc3c21 + Nc1ccc(C#CCN(C(=O)Cc2ncc(C(F)(F)F)cc2C(F)(F)F)c2ccc(F)cc2)nn1
IC50 (second compound 0.0316 µM): > 10 µM | IC50 (second compound 0.1 µM): > 10 µM | IC50 (second compound 0.316 µM): > 10 µM | IC50 (second compound 1 µM): > 10 µM | IC50 (second compound 3.16 µM): > 10 µM | IC50 (second compound 10 µM): > 10 µM | viability, T/C [1]: 96.5% | viability, T/C [2]: 113% | viability, T/C [3]: 119% | viability, T/C [4]: 79.2% | viability, T/C [5]: 65.5% | viability, T/C [6]: 95.2% | viability, T/C [7]: 122% | viability, T/C [8]: 89.3% | viability, T/C [9]: 70.7% | viability, T/C [10]: 84% | viability, T/C [11]: 62% | viability, T/C [12]: 76.1% | viability, T/C [13]: 95.8% | viability, T/C [14]: 85.1% | viability, T/C [15]: 79.9% | viability, T/C [16]: 80.7% | viability, T/C [17]: 56.4% | viability, T/C [18]: 95.8% | viability, T/C [19]: 91.4% | viability, T/C [20]: 80.3% | viability, T/C [21]: 104% | viability, T/C [22]: 88.7% | viability, T/C [23]: 57.3% | viability, T/C [24]: 97.8% | viability, T/C [25]: 85.6% | viability, T/C [26]: 72.8% | viability, T/C [27]: 80.5% | viability, T/C [28]: 88% | viability, T/C [29]: 70.1% | viability, T/C [30]: 113% | viability, T/C [31]: 79.3% | viability, T/C [32]: 97.8% | viability, T/C [33]: 88.6% | viability, T/C [34]: 79.7% | viability, T/C [35]: 59.7% | viability, T/C [36]: 97.2%

CCc1cc2c(N3CCc4c(cc(Cn5ccnc5)cc4-c4cn(C)nc4C(F)(F)F)C3=O)cc(C)nc2c(OC)n1 + Nc1ccc(C#CCN(C(=O)Cc2ncc(C(F)(F)F)cc2C(F)(F)F)c2ccc(F)cc2)nn1
IC50 (second compound 0.0316 µM): > 10 µM | IC50 (second compound 0.1 µM): > 10 µM | IC50 (second compound 0.316 µM): > 10 µM | IC50 (second compound 1 µM): > 10 µM | IC50 (second compound 3.16 µM): > 10 µM | IC50 (second compound 10 µM): > 10 µM | viability, T/C [1]: 98.2% | viability, T/C [2]: 96.9% | viability, T/C [3]: 109% | viability, T/C [4]: 126% | viability, T/C [5]: 108% | viability, T/C [6]: 80.2% | viability, T/C [7]: 123% | viability, T/C [8]: 97.6% | viability, T/C [9]: 126% | viability, T/C [10]: 133% | viability, T/C [11]: 113% | viability, T/C [12]: 79.5% | viability, T/C [13]: 104% | viability, T/C [14]: 119% | viability, T/C [15]: 123% | viability, T/C [16]: 135% | viability, T/C [17]: 126% | viability, T/C [18]: 75.2% | viability, T/C [19]: 125% | viability, T/C [20]: 116% | viability, T/C [21]: 132% | viability, T/C [22]: 135% | viability, T/C [23]: 109% | viability, T/C [24]: 67.9% | viability, T/C [25]: 109% | viability, T/C [26]: 125% | viability, T/C [27]: 119% | viability, T/C [28]: 114% | viability, T/C [29]: 116% | viability, T/C [30]: 97.3% | viability, T/C [31]: 97.8% | viability, T/C [32]: 126% | viability, T/C [33]: 112% | viability, T/C [34]: 124% | viability, T/C [35]: 104% | viability, T/C [36]: 93.4%

CCc1cc2c(N3CCc4c(cc(Cn5ccnc5)cc4-c4cn(C)nc4C(F)(F)F)C3=O)ccnc2c(OC)n1 + Nc1ccc(C#CCN(C(=O)Cc2ncc(C(F)(F)F)cc2C(F)(F)F)c2ccc(F)cc2)nn1
IC50 (second compound 0.0316 µM): > 10 µM | IC50 (second compound 0.1 µM): > 10 µM | IC50 (second compound 0.316 µM): > 10 µM | IC50 (second compound 1 µM): > 10 µM | IC50 (second compound 3.16 µM): > 10 µM | IC50 (second compound 10 µM): > 10 µM | viability, T/C [1]: 98% | viability, T/C [2]: 105% | viability, T/C [3]: 116% | viability, T/C [4]: 137% | viability, T/C [5]: 103% | viability, T/C [6]: 80.2% | viability, T/C [7]: 115% | viability, T/C [8]: 117% | viability, T/C [9]: 104% | viability, T/C [10]: 125% | viability, T/C [11]: 99.2% | viability, T/C [12]: 117% | viability, T/C [13]: 98.8% | viability, T/C [14]: 107% | viability, T/C [15]: 116% | viability, T/C [16]: 124% | viability, T/C [17]: 127% | viability, T/C [18]: 82.1% | viability, T/C [19]: 103% | viability, T/C [20]: 93.7% | viability, T/C [21]: 125% | viability, T/C [22]: 123% | viability, T/C [23]: 99% | viability, T/C [24]: 105% | viability, T/C [25]: 105% | viability, T/C [26]: 104% | viability, T/C [27]: 120% | viability, T/C [28]: 124% | viability, T/C [29]: 111% | viability, T/C [30]: 105% | viability, T/C [31]: 118% | viability, T/C [32]: 101% | viability, T/C [33]: 129% | viability, T/C [34]: 135% | viability, T/C [35]: 120% | viability, T/C [36]: 92.8%

COc1ccc([C@@H](O)c2cc(-c3ncnc4cc(N5CCOCC5)ccc34)c(F)cc2Cl)nn1 + Nc1ccc(C#CCN(C(=O)Cc2ncc(C(F)(F)F)cc2C(F)(F)F)c2ccc(F)cc2)nn1
IC50 (second compound 0.0316 µM): 3.14 µM | IC50 (second compound 0.1 µM): 5.02 µM | IC50 (second compound 0.316 µM): 4.55 µM | IC50 (second compound 1 µM): 5.06 µM | IC50 (second compound 3.16 µM): 5.83 µM | IC50 (second compound 10 µM): 6.74 µM | viability, T/C [1]: 84.6% | viability, T/C [2]: 80.6% | viability, T/C [3]: 81.5% | viability, T/C [4]: 87.8% | viability, T/C [5]: 49.8% | viability, T/C [6]: 35.2% | viability, T/C [7]: 113% | viability, T/C [8]: 77.5% | viability, T/C [9]: 80% | viability, T/C [10]: 73.4% | viability, T/C [11]: 56.8% | viability, T/C [12]: 39.5% | viability, T/C [13]: 87.5% | viability, T/C [14]: 95% | viability, T/C [15]: 72.9% | viability, T/C [16]: 72.8% | viability, T/C [17]: 54% | viability, T/C [18]: 39.6% | viability, T/C [19]: 86.2% | viability, T/C [20]: 72.1% | viability, T/C [21]: 72.4% | viability, T/C [22]: 65.9% | viability, T/C [23]: 62.2% | viability, T/C [24]: 37.8% | viability, T/C [25]: 74.3% | viability, T/C [26]: 65.4% | viability, T/C [27]: 73.8% | viability, T/C [28]: 65.2% | viability, T/C [29]: 63.2% | viability, T/C [30]: 39.3% | viability, T/C [31]: 105% | viability, T/C [32]: 77.9% | viability, T/C [33]: 96.7% | viability, T/C [34]: 60.1% | viability, T/C [35]: 56.6% | viability, T/C [36]: 47.5%
